Patent publication US20210317140A1, “Heterocyclic Compounds and Methods of Use” (MEDIVATION TECHNOLOGIES, INC, priority 2013, published 2021)

What was measured:
BTK = target: T1, BTK (Homo sapiens, UniProt Q06187); experiment: BTK kinase assay (HotSpot, 33P ATP); assay type: biochemical; conditions: for BTK @ 0.01 μM (% Inh): 0.01 μM compound; for BTK @ 0.01 μM (% Inh) / BTK @ 0.1 μM (% Inh) / BTK @ 1 μM (% Inh): 10 μM ATP; for BTK @ 0.1 μM (% Inh): 0.1 μM compound; for BTK @ 1 μM (% Inh): 1 μM compound; for IC50: 10 dose IC50, 10 μM ATP
T1 construct: purchased Reaction Biology Corporation
T1 sequence (Q06187 whole entry): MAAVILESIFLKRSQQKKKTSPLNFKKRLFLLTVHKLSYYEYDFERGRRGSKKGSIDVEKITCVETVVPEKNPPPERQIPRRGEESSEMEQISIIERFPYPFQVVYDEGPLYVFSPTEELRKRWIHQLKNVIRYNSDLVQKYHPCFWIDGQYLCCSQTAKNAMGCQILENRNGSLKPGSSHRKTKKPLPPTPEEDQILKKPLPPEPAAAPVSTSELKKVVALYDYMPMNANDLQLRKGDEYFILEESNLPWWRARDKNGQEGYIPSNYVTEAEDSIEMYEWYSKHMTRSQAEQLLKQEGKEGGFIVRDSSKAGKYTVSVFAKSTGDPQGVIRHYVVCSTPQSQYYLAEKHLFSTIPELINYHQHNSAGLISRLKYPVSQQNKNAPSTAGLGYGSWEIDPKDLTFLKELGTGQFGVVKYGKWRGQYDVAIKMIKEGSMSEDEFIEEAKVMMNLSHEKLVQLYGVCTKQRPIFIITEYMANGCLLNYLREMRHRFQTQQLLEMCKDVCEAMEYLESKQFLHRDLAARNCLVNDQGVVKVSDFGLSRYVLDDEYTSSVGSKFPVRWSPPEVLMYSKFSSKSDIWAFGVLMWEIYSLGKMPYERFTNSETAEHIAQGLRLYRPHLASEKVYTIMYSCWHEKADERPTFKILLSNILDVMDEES
How it was run: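 In 20 mM Hepes (pH 7.5) with 10 mM MgCl2, 1 mM EGTA, 0.1 mM Na3VO4, 2 mM DTT, 0.02% Brij35, 0.02 mg/mL BSA and 1% DMSO, kinase and substrate were exposed to ten compound doses for 15–20 min.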

CD69+B220+ cells = experiment: B cell activation assay (IgD-stimulated splenocytes, CD69+B220+ cells by FACS); assay type: cell-based; conditions: IgD 3 μg/mL, 4 h; for CD69 @ 100 nM (% Inh): 100 nM compound, mouse splenocytes
Experimental: 1 Female mouse approximately 2 months old was euthanized with CO2 and the spleen removed. The tissue was homogenized with a polished glass microscope slide. The cells were collected in 5 mL complete medium (RPMI+10% FBS+pen/strep), placed in a 15 mL falcon tube and centrifuged at 500×g for 5 min. The supernatant was discarded and the pellet was resuspended in 3 mL of ACK lysis buffer (NH4Cl 0.17M, KHCO3 10 mM, EDTA-Na2 0.1 mM, pH 7.2), incubated at 37° C. for 5 min. 2 mL complete medium was added and the mixture centrifuged at 500×g for 5 min. The supernatant was discarded and the pellet resuspended in 1 mL complete medium. The mixture was passed through a […] cell strainer and collect in 50 mL falcon tube. Enough medium was added to have a total of 10 mL. The cells were counted and seeded in 24 or 48-well plate in 1 mL complete medium at 10^6 cells/mL. The plate was placed in a 37° C. incubator for 15 min. The cells were treated for 30 min at 37° C. with 100 nM test compound dissolved in 100% DMSO. 3 μL IgD (Accurate chemical and scientific corp.) was added at a final concentration of 3 μg/mL and the mixture incubated at 37° C. for 4 h. The cells were collected in 1.5 mL eppendorf tubes, centrifuged at 500×g for 5 min and then resuspended in 100 μL of PBS+2% FBS. The following antibodies were added: α-B220 PE (pharmingen #553090), α-CD69 APC (pharmingen #60689), live/dead fixable aqua dead cell stain kit (life technologies #L34957) all at 1:300, and the mixture incubated for 15 min at 4° C. in the dark. To this was added 900 μL of PBS+2% FBS and the mixture centrifuged at 500×g for 5 min. The supernatant was removed and the pellet resuspended in 300 μL of PBS+2% FBS and mixed well. The mixture was transferred to a cytometer tube. The samples were run in the FACS Canto II cytometer and quantified by the number of CD69+B220+ cells as a percentage of the total number of B220+ alive cells.

PI3Kδ = target: T2, PI3Kδ (Homo sapiens, UniProt O00329); experiment: PI3Kδ kinase assay (HTRF, PIP3 detection); assay type: biochemical; conditions: for PI3Kδ @ 0.01 μM (% Inh): 0.01 μM compound; for PI3Kδ @ 0.01 μM (% Inh) / PI3Kδ @ 0.1 μM (% Inh) / PI3Kδ @ 1 μM (% Inh): 10 μM ATP; for PI3Kδ @ 0.1 μM (% Inh): 0.1 μM compound; for PI3Kδ @ 1 μM (% Inh): 1 μM compound; for IC50: 10 dose IC50, 10 μM ATP
T2 construct: purchased Reaction Biology Corporation
T2 sequence (O00329 whole entry): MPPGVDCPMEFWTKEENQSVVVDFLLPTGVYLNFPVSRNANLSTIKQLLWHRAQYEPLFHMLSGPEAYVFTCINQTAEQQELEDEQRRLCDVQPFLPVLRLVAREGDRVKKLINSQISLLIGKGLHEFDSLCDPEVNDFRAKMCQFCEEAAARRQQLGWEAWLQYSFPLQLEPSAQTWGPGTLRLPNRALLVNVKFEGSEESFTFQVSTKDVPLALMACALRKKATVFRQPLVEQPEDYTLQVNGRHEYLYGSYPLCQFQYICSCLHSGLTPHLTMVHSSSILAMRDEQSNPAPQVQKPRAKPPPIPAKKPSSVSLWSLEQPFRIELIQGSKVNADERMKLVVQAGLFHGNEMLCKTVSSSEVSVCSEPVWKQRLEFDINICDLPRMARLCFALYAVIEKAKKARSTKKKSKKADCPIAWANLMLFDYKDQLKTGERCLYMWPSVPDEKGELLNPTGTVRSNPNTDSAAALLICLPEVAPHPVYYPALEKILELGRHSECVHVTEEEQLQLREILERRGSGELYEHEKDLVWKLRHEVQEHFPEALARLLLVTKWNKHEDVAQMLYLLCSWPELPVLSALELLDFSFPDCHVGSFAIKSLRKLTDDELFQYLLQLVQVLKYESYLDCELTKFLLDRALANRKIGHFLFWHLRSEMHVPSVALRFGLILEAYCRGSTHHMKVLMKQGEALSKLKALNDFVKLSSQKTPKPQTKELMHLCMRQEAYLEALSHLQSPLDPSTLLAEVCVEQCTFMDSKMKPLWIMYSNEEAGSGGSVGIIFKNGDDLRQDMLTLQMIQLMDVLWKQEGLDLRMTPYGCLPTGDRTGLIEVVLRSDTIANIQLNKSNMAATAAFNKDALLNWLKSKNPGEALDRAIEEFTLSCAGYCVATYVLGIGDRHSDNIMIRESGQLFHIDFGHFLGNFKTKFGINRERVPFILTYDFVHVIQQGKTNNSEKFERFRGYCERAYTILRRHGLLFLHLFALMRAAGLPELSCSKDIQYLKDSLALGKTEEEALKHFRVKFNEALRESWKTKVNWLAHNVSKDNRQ
T2 sequence (P27986 whole entry partner): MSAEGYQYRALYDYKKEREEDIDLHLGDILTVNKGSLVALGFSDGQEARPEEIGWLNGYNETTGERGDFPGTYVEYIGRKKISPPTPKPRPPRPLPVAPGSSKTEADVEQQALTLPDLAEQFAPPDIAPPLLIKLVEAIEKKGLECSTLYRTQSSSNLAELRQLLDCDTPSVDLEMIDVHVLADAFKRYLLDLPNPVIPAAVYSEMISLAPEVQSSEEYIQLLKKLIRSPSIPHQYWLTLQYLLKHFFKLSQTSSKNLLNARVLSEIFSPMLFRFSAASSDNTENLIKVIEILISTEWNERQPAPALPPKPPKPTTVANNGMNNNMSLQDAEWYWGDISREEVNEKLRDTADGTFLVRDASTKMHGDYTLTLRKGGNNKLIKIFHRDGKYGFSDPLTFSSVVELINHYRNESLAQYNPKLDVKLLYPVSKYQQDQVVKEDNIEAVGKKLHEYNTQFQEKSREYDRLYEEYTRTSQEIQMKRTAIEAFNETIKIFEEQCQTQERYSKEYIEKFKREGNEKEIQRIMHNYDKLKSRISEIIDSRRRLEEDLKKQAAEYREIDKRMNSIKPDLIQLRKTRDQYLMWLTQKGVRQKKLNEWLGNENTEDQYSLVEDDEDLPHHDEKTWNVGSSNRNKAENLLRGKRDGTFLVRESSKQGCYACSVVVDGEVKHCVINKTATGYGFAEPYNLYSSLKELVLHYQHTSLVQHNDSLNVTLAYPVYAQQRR
How it was run: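 10-dose HTRF assay; kinase preincubated with compound 10 min at RT, then reacted with 10 μM PIP2 and 10 μM ATP for 30 min at 30 °C in HEPES pH 7.0 buffer. PIP3 product displaces biotin-PIP3 from the Eu/APC complex; signal converted to PIP3 via standard curve, IC50 by nonlinear regression.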

SMILES | BTK @ 0.01 μM (% Inh) (BTK) | BTK @ 0.1 μM (% Inh) (BTK) | PI3Kδ @ 0.01 μM (% Inh) (PI3Kδ) | PI3Kδ @ 0.1 μM (% Inh) (PI3Kδ) | BTK @ 1 μM (% Inh) (BTK) | PI3Kδ @ 1 μM (% Inh) (PI3Kδ) | IC50 (BTK) [nM] | IC50 (PI3Kδ) [nM] | CD69 @ 100 nM (% Inh) (CD69+B220+ cells) | IC50 (CD69+B220+ cells; Mus musculus, Splenocyte) [nM] | CD69 @ 100 nM (% Inh) (CD69+B220+ cells; 0.1 µM)
NCc1cccc(-c2nn(C3Cc4ccccc4C3)c3ncnc(N)c23)c1 [compound 133, 3-[3-(aminomethyl)phenyl]-1-(2,3-dihydro-1H-inden-2-yl)-1H-pyrazolo[3,4-d]pyrimidin-4-amine] | −0.81 | −0.94 | −1.05 | 1.17 | – | – | – | – | 6.8 ± 14.52 (n = 3) % Inh | – | –
Nc1ncnc2c1c(-c1cc(O)cc(Cl)c1)nn2C1Cc2ccccc2C1 [Compound No. 67, 3-[4-amino-1-(2,3-dihydro-1H-inden-2-yl)-1H-pyrazolo[3,4-d]pyrimidin-3-yl]-5-chlorophenol] | – | 43.63 | – | 84.5 | 87.64 | 90.92 | 142 | 4.1 | 65.11 ± 18.09 (n = 6) % Inh | 109 ± 57 | –
Nc1cc(-c2nn(C3Cc4ccccc4C3)c3ncnc(N)c23)cc(F)c1F [compound 109, 3-(3-amino-4,5-difluorophenyl)-1-(2,3-dihydro-1H-inden-2-yl)-1H-pyrazolo[3,4-d]pyrimidin-4-amine] | 14.85 | 63.35 | 2.46 | 26.17 | – | – | – | – | 10.19 ± 14.12 (n = 3) % Inh | – | –
Nc1ncnc2c1c(-c1ccc3[nH]cnc3c1)nn2C1CCc2ccccc2C1 (single isomer, unassigned) [Compound No. 19b, 3-(1H-benzo[d]imidazol-5-yl)-1-(1,2,3,4-tetrahydronaphthalen-2-yl)-1H-pyrazolo[3,4-d]pyrimidin-4-amine] | – | – | – | – | – | – | 1270 | 6.4 | – | – | 36.67 ± 6.35 (n = 6) % Inh
Nc1ncnc2c1c(-c1cc(O)c(Cl)cc1Cl)nn2C1Cc2ccccc2C1 [Compound No. 103, 5-[4-amino-1-(2,3-dihydro-1H-inden-2-yl)-1H-pyrazolo[3,4-d]pyrimidin-3-yl]-2,4-dichlorophenol] | – | 47.24 | – | 72.71 | 89.82 | 94.52 | 162 | 45.7 | 25.06 ± 22.54 (n = 5) % Inh | – | –
Nc1ncnc2c1c(-c1cc(F)c3c(c1)NC(=O)CO3)nn2C1Cc2ccccc2C1 [compound 129, 6-[4-amino-1-(2,3-dihydro-1H-inden-2-yl)-1H-pyrazolo[3,4-d]pyrimidin-3-yl]-8-fluoro-3,4-dihydro-2H-1,4-benzoxazin-3-one] | 6.57 | 18.99 | 8.3 | 19.42 | – | – | – | – | 12.5 ± 13.16 (n = 3) % Inh | – | –
Nc1ncnc2c1c(-c1cc(O)c(F)c(F)c1)nn2C1Cc2ccc(F)cc2C1 (centres unmarked) [compound 128, 5-[4-amino-1-(5-fluoro-2,3-dihydro-1H-inden-2-yl)-1H-pyrazolo[3,4-d]pyrimidin-3-yl]-2,3-difluorophenol] | 19.98 | 63.94 | 56.4 | 91.22 | – | – | – | – | 49.29 ± 5.74 (n = 3) % Inh | – | –

Second part, led by results:

BTK @ 0.01 μM (% Inh) (BTK) | BTK @ 0.1 μM (% Inh) (BTK) | PI3Kδ @ 0.01 μM (% Inh) (PI3Kδ) | PI3Kδ @ 0.1 μM (% Inh) (PI3Kδ) | BTK @ 1 μM (% Inh) (BTK) | PI3Kδ @ 1 μM (% Inh) (PI3Kδ) | IC50 (BTK) [nM] | IC50 (PI3Kδ) [nM] | SMILES | CD69 @ 100 nM (% Inh) (CD69+B220+ cells) | IC50 (CD69+B220+ cells; Mus musculus, Splenocyte) [nM] | CD69 @ 100 nM (% Inh) (CD69+B220+ cells; 0.1 µM)
1.76 | 6.6 | 9.28 | 21.98 | – | – | – | – | Nc1ncnc2c1c(-c1ccc3[nH]c(O)nc3c1)nn2C1Cc2ccccc2C1 [compound 108, 5-[4-amino-1-(2,3-dihydro-1H-inden-2-yl)-1H-pyrazolo[3,4-d]pyrimidin-3-yl]-1H-1,3-benzodiazol-2-ol] | 11.99 ± 7.58 (n = 3) % Inh | – | –
90.34 | 6.55 | 1.09 | 25.95 | – | – | – | – | Nc1ncnc2c1c(-c1cc(F)c3c(c1)NCCO3)nn2C1Cc2ccc(F)cc2C1 (centres unmarked) [compound 121, 1-(5-fluoro-2,3-dihydro-1H-inden-2-yl)-3-(8-fluoro-3,4-dihydro-2H-1,4-benzoxazin-6-yl)-1H-pyrazolo[3,4-d]pyrimidin-4-amine] | −82.03 ± 14.71 (n = 3) % Inh | – | –
– | 27.50 | – | 16.0 | 59.18 | 34.72 | – | – | COc1cc(-c2nn(C3Cc4ccccc4C3)c3ncnc(N)c23)cc(C#N)c1OC [Compound No. 105, 5-[4-amino-1-(2,3-dihydro-1H-inden-2-yl)-1H-pyrazolo[3,4-d]pyrimidin-3-yl]-2,3-dimethoxybenzonitrile] | 24.25 ± 33.84 (n = 5) % Inh | – | –
21.71 | 70.28 | 70.35 | 91.77 | – | – | – | – | Nc1ncnc2c1c(-c1cc(O)c(F)c(F)c1)nn2C1CCc2ccccc2C1 (centres unmarked) [compound 119, 5-[4-amino-1-(1,2,3,4-tetrahydronaphthalen-2-yl)-1H-pyrazolo[3,4-d]pyrimidin-3-yl]-2,3-difluorophenol] | 47.52 ± 5.57 (n = 3) % Inh | – | –
−2.45 | 0.17 | 13.11 | 53.68 | – | – | – | – | NC(=O)c1cc(-c2nn(C3CCc4ccccc4C3)c3ncnc(N)c23)cc(O)c1F (centres unmarked) [compound 131, 5-[4-amino-1-(1,2,3,4-tetrahydronaphthalen-2-yl)-1H-pyrazolo[3,4-d]pyrimidin-3-yl]-2-fluoro-3-hydroxybenzamide] | 15.73 ± 14.11 (n = 3) % Inh | – | –
21.31 | 67.32 | 75.86 | 91.69 | – | – | – | – | Nc1ncnc2c1c(-c1cc(O)c(F)c(Cl)c1)nn2C1Cc2ccccc2C1 [compound 117, 5-[4-amino-1-(2,3-dihydro-1H-inden-2-yl)-1H-pyrazolo[3,4-d]pyrimidin-3-yl]-3-chloro-2-fluorophenol] | 46.59 ± 11.89 (n = 3) % Inh | – | –
